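Following 48 hours of exposure in 96-well plates, responses at five concentrations were used to interpolate endpoints linearly. At the GI50, growth is halved.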 The source made the active and inactive calls. Cut-off read from the data, not from the text of the source: active = GI50 up to about 1.1 µM and inactive = higher.
What was measured:
Test in all cases: DTP human tumour cell line panel, 48 h
M14 = test system: M14
U-251 = test system: U-251
RPMI-8226 = test system: RPMI-8226
MDA-MB-435 = test system: MDA-MB-435
A549 = test system: A549
SNB-19 = test system: SNB-19
NCI-H522 = test system: NCI-H522
COLO 205 = test system: COLO 205
786-0 = test system: 786-0
SF-268 = test system: SF-268
SN12C = test system: SN12C
Hs-578T = test system: Hs-578T
SNB-75 = test system: SNB-75
UACC-62 = test system: UACC-62
HT-29 = test system: HT-29
OVCAR-4 = test system: OVCAR-4
NCI-H226 = test system: NCI-H226
UO-31 = test system: UO-31
Malme-3M = test system: Malme-3M
RXF 393 = test system: RXF 393

SMILES | GI50 (M14) | GI50 (U-251) | GI50 (RPMI-8226) | GI50 (MDA-MB-435) | GI50 (A549) | GI50 (SNB-19) | GI50 (NCI-H522) | GI50 (COLO 205) | GI50 (786-0) | GI50 (SF-268) | GI50 (SN12C) | GI50 (Hs-578T) | GI50 (SNB-75) | GI50 (UACC-62) | GI50 (HT-29) | GI50 (OVCAR-4) | GI50 (NCI-H226) | GI50 (UO-31) | GI50 (Malme-3M) | GI50 (RXF 393)
CC(=O)OC1(C)C(=O)OC/C2=C/CN(C)CCC(OC(=O)C(O)(C(C)Cl)CC1C)C2=O.c1ccccc1 (stereo unspecified) | > 100 µM (inactive) | > 100 µM (inactive) | > 100 µM (inactive) | > 100 µM (inactive) | > 100 µM (inactive) | > 100 µM (inactive) | > 100 µM (inactive) | > 100 µM (inactive) | > 100 µM (inactive) | > 100 µM (inactive) | > 100 µM (inactive) | > 100 µM (inactive) | > 100 µM (inactive) | > 100 µM (inactive) | > 100 µM (inactive) | > 100 µM (inactive) | > 100 µM (inactive) | > 100 µM (inactive) |  | 
CC1=C/C(=N\O)C(C(O)(C(F)(F)F)C(F)(F)F)C(C)(C)C1 (stereo unspecified) | > 10 µM (inactive) | > 10 µM (inactive) |  | > 10 µM (inactive) | > 10 µM (inactive) | > 10 µM (inactive) | > 10 µM (inactive) | > 10 µM (inactive) | > 10 µM (inactive) | > 10 µM (inactive) | > 10 µM (inactive) | > 10 µM (inactive) | 3.49 µM (inactive) | > 10 µM (inactive) | > 10 µM (inactive) | > 10 µM (inactive) | > 10 µM (inactive) | > 10 µM (inactive) | > 10 µM (inactive) | 
C[C@]12CCC(=O)C(OC(=O)c3ccc([N+](=O)[O-])cc3)=C1CCC2=O | > 100 µM (inactive) | > 100 µM (inactive) | > 100 µM (inactive) |  | > 100 µM (inactive) | > 100 µM (inactive) | > 100 µM (inactive) | 98.6 µM (inactive) | > 100 µM (inactive) | > 100 µM (inactive) | > 100 µM (inactive) |  | > 100 µM (inactive) | > 100 µM (inactive) | > 100 µM (inactive) | > 100 µM (inactive) | 95.5 µM (inactive) |  | > 100 µM (inactive) | > 100 µM (inactive)
COC(=O)CCC(NC(=S)N/N=C(\C)c1cnccn1)C(=O)OC (stereo unspecified) | 42.4 µM (inactive) | 52.4 µM (inactive) | 44.9 µM (inactive) |  | 58.7 µM (inactive) | > 100 µM (inactive) | 27 µM (inactive) | 34.4 µM (inactive) | 58.6 µM (inactive) | 35.4 µM (inactive) | 86.7 µM (inactive) |  | 85.3 µM (inactive) | 28.6 µM (inactive) | 93.3 µM (inactive) | 56.2 µM (inactive) | 44.5 µM (inactive) | 49.1 µM (inactive) | 54.1 µM (inactive) | > 100 µM (inactive)
COc1ccc(CNC(=O)NCn2cc(-c3ccccc3)nn2)cc1 | > 100 µM (inactive) | > 100 µM (inactive) | > 100 µM (inactive) | > 100 µM (inactive) | > 100 µM (inactive) | > 100 µM (inactive) | > 100 µM (inactive) | > 100 µM (inactive) | > 100 µM (inactive) | > 100 µM (inactive) | > 100 µM (inactive) |  | > 100 µM (inactive) |  | > 100 µM (inactive) | > 100 µM (inactive) |  |  | > 100 µM (inactive) | 
C[n+]1c2ccccc2c(CNC(CS)C(=O)O)c2ccccc21 (stereo unspecified) | 38.9 µM (inactive) | 24.2 µM (inactive) | 16.9 µM (inactive) |  | 30.3 µM (inactive) | 32.7 µM (inactive) | 17.8 µM (inactive) | 19.2 µM (inactive) | 31.8 µM (inactive) | 20.4 µM (inactive) | 30.5 µM (inactive) |  | 21.7 µM (inactive) | 14.6 µM (inactive) | 29.3 µM (inactive) | 28.1 µM (inactive) | 29.8 µM (inactive) | 18 µM (inactive) | 37.8 µM (inactive) | 24.1 µM (inactive)
O=C(O)C12C3C4(C(=O)O)C1C1(C(=O)O)C2C3(C(=O)O)C41 (stereo unspecified) | > 100 µM (inactive) | > 100 µM (inactive) | > 100 µM (inactive) | > 100 µM (inactive) | > 100 µM (inactive) | > 100 µM (inactive) | > 100 µM (inactive) | > 100 µM (inactive) | > 100 µM (inactive) | > 100 µM (inactive) | > 100 µM (inactive) | > 100 µM (inactive) | > 100 µM (inactive) | > 100 µM (inactive) | > 100 µM (inactive) | > 100 µM (inactive) |  | > 100 µM (inactive) | > 100 µM (inactive) | 
CCC12C=C(C(=O)OC)N3c4ccccc4C4CCN(CCC1)C2C43 (stereo unspecified) | 33.4 µM (inactive) | 82.4 µM (inactive) | 50.6 µM (inactive) |  | > 100 µM (inactive) | 72.4 µM (inactive) | 75.7 µM (inactive) | 31.9 µM (inactive) | 21.3 µM (inactive) | > 100 µM (inactive) | 83.8 µM (inactive) |  | 30.2 µM (inactive) | > 100 µM (inactive) | 32.1 µM (inactive) | 97.9 µM (inactive) | 25.3 µM (inactive) | 77.3 µM (inactive) | 18.8 µM (inactive) | 53.2 µM (inactive)
OC(Cc1ccc2ccccc2n1)(C(F)(F)Cl)C(F)(F)Cl | > 10 µM (inactive) | > 10 µM (inactive) |  | > 10 µM (inactive) | > 10 µM (inactive) | > 10 µM (inactive) | > 10 µM (inactive) | > 10 µM (inactive) | > 10 µM (inactive) | > 10 µM (inactive) | > 10 µM (inactive) | > 10 µM (inactive) | > 10 µM (inactive) | > 10 µM (inactive) | > 10 µM (inactive) | > 10 µM (inactive) | > 10 µM (inactive) | > 10 µM (inactive) | > 10 µM (inactive) | 
O=C(O)c1cccc(S(=O)(=O)NN2C(=O)CSC2c2c(O)ccc3ccccc23)c1 (stereo unspecified) | 42.2 µM (inactive) | 34.3 µM (inactive) |  | 37.6 µM (inactive) | 41.5 µM (inactive) | 26.4 µM (inactive) | 27.8 µM (inactive) | 38 µM (inactive) | 39.4 µM (inactive) | 32.5 µM (inactive) | 36.9 µM (inactive) |  | 30.6 µM (inactive) | 27 µM (inactive) | 29.9 µM (inactive) | 28.9 µM (inactive) | 34.8 µM (inactive) | 33.4 µM (inactive) | 26.5 µM (inactive) | 45 µM (inactive)
NC(=O)C(=O)Cc1nc2ccccc2s1 | > 100 µM (inactive) | > 100 µM (inactive) | > 100 µM (inactive) |  | > 100 µM (inactive) | > 100 µM (inactive) | > 100 µM (inactive) | > 100 µM (inactive) | > 100 µM (inactive) | > 100 µM (inactive) | > 100 µM (inactive) |  | 68.2 µM (inactive) |  | > 100 µM (inactive) | > 100 µM (inactive) | > 100 µM (inactive) | > 100 µM (inactive) | > 100 µM (inactive) | > 100 µM (inactive)
O=C(Nc1ccccc1C(=O)O)C(=O)C(C(=O)c1ccccc1-c1ccccc1)C1OC(=O)c2ccccc21 (stereo unspecified) | 17.1 µM (inactive) | 15.4 µM (inactive) | 25.2 µM (inactive) |  | 31.4 µM (inactive) | 16.1 µM (inactive) | 16.2 µM (inactive) | 24 µM (inactive) | 18 µM (inactive) | 16.8 µM (inactive) | 17.1 µM (inactive) |  | 25.1 µM (inactive) | 16.6 µM (inactive) | 29.7 µM (inactive) | 35 µM (inactive) | 12.5 µM (inactive) | 18 µM (inactive) | 12.2 µM (inactive) | 13.6 µM (inactive)
COC(=O)[C@@H]1[C@H](O)CCC2=C(CC(=O)c3ccoc3)[C@H](C)CC[C@]21C | 41.2 µM (inactive) | 41.2 µM (inactive) |  |  | > 50 µM (inactive) | > 50 µM (inactive) |  | > 50 µM (inactive) | > 50 µM (inactive) |  | > 50 µM (inactive) | > 50 µM (inactive) | 16.7 µM (inactive) | 25.4 µM (inactive) | 44.3 µM (inactive) | 45 µM (inactive) | 46.2 µM (inactive) | 19.5 µM (inactive) | > 50 µM (inactive) | 41.7 µM (inactive)
CCOc1cc(/C=N\N(C)C)cc(/C=N\N(C)C)c1O | 40.2 µM (inactive) | 33.7 µM (inactive) | 31.6 µM (inactive) | 32.5 µM (inactive) | > 100 µM (inactive) | 48.9 µM (inactive) |  | 18.7 µM (inactive) | 42.7 µM (inactive) | 19.8 µM (inactive) | 54 µM (inactive) | 29.7 µM (inactive) | 28.8 µM (inactive) | 69 µM (inactive) | 42.3 µM (inactive) | > 100 µM (inactive) | 38.3 µM (inactive) | 29.4 µM (inactive) | 32.4 µM (inactive) | 
COc1ccc2nc3cc(Cl)ccc3c(NC(C)CCCN(CCCl)CCCl)c2c1 (stereo unspecified) | 0.809 µM (active) | 0.607 µM (active) | 0.293 µM (active) |  | 0.474 µM (active) | 0.74 µM (active) | 0.55 µM (active) | 0.397 µM (active) | 0.31 µM (active) | 0.273 µM (active) | 0.269 µM (active) |  | 1.42 µM (inactive) | 0.29 µM (active) | 0.272 µM (active) | 0.849 µM (active) | 0.387 µM (active) | 2.04 µM (inactive) | 1.85 µM (inactive) | 1.04 µM (active)
CCN(CC)CCC(=O)Nc1ccc2sc3ccccc3c(=O)c2n1 | 13.8 µM (inactive) | 14.9 µM (inactive) | 12.1 µM (inactive) | 13.1 µM (inactive) | 17.3 µM (inactive) | 16.7 µM (inactive) | 14.8 µM (inactive) | 12.9 µM (inactive) | 12.5 µM (inactive) | 17.1 µM (inactive) | 23 µM (inactive) | 20.7 µM (inactive) | 8.55 µM (inactive) | 17.7 µM (inactive) | 36.7 µM (inactive) | 22.9 µM (inactive) |  | 10.4 µM (inactive) | 23.4 µM (inactive) | 
